Results reported in patent US11833181B1, “Method of treating or preventing Alzheimer's Disease” (KING FAISAL UNIVERSITY, priority 2023, dated 2023).
Values joined by “and” are separate entries in the source; they are usually repeats but may differ in a detail not shown here. Equal values may be shown once. Marks after values point to notes of the source that are not given here.

What was measured:
Assay type in all cases: in vivo, rat
[1] = test system: aluminum chloride (AlCl3)-induced Alzheimer-like disease in rats; assay: Lipid peroxidation (TBARS) in brain homogenate of AlCl3-induced Alzheimer-like rats
Description: (§1) The neuroprotective effects of silymarin (SM) were tested on the hippocampal tissues of aluminum chloride (AlCl3)-induced Alzheimer's-like disease in rats using biochemical, histological, and immune-histochemical examination. For this experiment, 42 mature male albino rats were divided equally into 6 groups each of 7 rats as follows: • Group I: Rats injected with distilled water and served as the control group (non-induced); • Group II: Rats injected with AlCl3; • Group III: Rats injected with AlCl3, then silymarin; • Group IV: Rats injected with AlCl3, then collagen; • Group V: Rats injected with AlCl3 then silymarin nanoparticles; • Group VI: Rats injected with AlCl3 then silymarin+collagen nanoparticles.
(§2) All of the experimental animals were sacrificed, and their brains dissected to take out the cortex section. The homogenates (10%, w/v) were then centrifuged at 10,000 rpm for 15 min and the supernatants were conserved at […] for subsequent biochemical evaluations to determine, oxidative stress markers, catalase activity, superoxide dismutase, glutathione peroxidase, glutathione reductase; and lipid peroxidation.
Lipid peroxidation was determined by measuring the thiobarbituric reactive substances (TBARS) in the homogenate where: Thiobarbituric acid+malondialdehyde Colored product+2 H2O Malondialdehyde (MDA), a major secondary product of lipid peroxidation (LPO) reacts with thiobarbituric acid (TBA), producing pink color adducts on heating. This reaction has been widely adopted as a sensitive method for lipid peroxidation that represents a major indicator of oxidative stress.
In four test tubes, homogenate supernatant (test) or water (blank) was added to 1 ml TCA and mixed well, then the solutions were centrifuged at 3000 rpm for 10 min. One milliliter of the supernatant of each of the previous four test tubes was added to 0.5 ml of TBA and heated for 30 min at 90° C. then cooled. The absorbance of samples (As) was read at 532 nm against blank.
The concentration of proteins was estimated. The levels of TBARS were calculated with the following equations:
For tissue homogenate: As: TBARS level (μmol/g protein)=(0.156×total protein×1000)×10, where; • As: absorbance of the sample (homogenate); • 0.156: molar extinction coefficient (μM−1 cm^−1); and • 10: the sample dilution factor.
(§3) Male albino rats were pretreated with one dose of the nano-formulation of 200 mg/kg/day for 15 days orally. The animals were then evaluated for neurobehavioral, infarct analysis, biochemical, histopathological studies.

[2] = test system: aluminum chloride (AlCl3)-induced Alzheimer-like disease in rats; assay: Nitric oxide (nitrite) level in brain homogenate of AlCl3-induced Alzheimer-like rats
Description: as §1, §2
Nitric oxide was rapidly oxidized to nitrite (NO^2−) and/or nitrate (NO^3−) by oxygen. In this method, nitrite was first treated with a diazotizing reagent, e.g., sulfanilamide (SA), in acidic media to form a transient diazonium salt. This intermediate was then allowed to react with a coupling reagent, N-naphthyl-ethylene diamine, to form a stable azo compound. The intense purple color of the product allows nitrite assay with high sensitivity and can be used to measure nitrite concentration as low as […]. The absorbance of this adduct at 540 nm is linearly proportional to the nitrite concentration in the sample.
The reagents included sulphanilamide (10 mM), N-(1-naphthyl) ethylenediamine, (1 mM), and standard sodium nitrite solution (100 μM). To four test tubes, each containing 1 ml sulphanilamide, 100 μl of either homogenate (test), standard solution (standard), or distilled water (blank) were added. The four test tubes were incubated for 5 minutes at room temperature. Then, 100 μl N-(1-naphthyl) ethylene diamine was added to all tubes and allowed to stand for 20 min at room temperature. The absorbance of the test and standard was read at 540 nm against blank.
The homogenate NO level was calculated according to the following equation: NO level (μM/g protein)=[As Ast×Standard concentration×10]/total proteins, where; • As: Absorbance of the sample (homogenate); • Ast: Absorbance of standard; and • 10: The sample dilution factor.
as §3

[3] = test system: aluminum chloride (AlCl3)-induced Alzheimer-like disease in rats; assay: Reduced glutathione (GSH) level in brain homogenate of AlCl3-induced Alzheimer-like rats
Description: as §1, §2
To determine homogenate reduced glutathione (GSH) level, GSH was allowed to react with 5,5′-dithio-bis-2-nitrobenzoic acid (DTNB) (equation below), known as Ellman's reagent, generating a yellow-colored 2-nitro-5-thiobenzoic acid product. DTNB+2 GSH Glutathione reductase 2-nitro-5-thiobenzoic acid
The reagents used included sulfosalicylic acid, 4%; phosphate buffer, 0.1 M, pH 7.4 and pH 8; DTNB, 10 mM, 19.8 mg in 10 ml phosphate buffer pH 8, and standard GSH, and 1 mg/dl (32.54 μM) in phosphate buffer pH 7.4.
Proteins in 0.1 ml of either homogenate supernatants (samples) were precipitated using 0.1 ml of 4% sulfosalicylic acid. The samples were kept at 4° C. for at least 1 hour and then subjected to centrifugation at 3000 rpm for 10 min at 4° C. The assay mixture contained 0.1 ml supernatant, 2.7 ml phosphate buffer (0.1 M, pH 7.4), and 0.2 ml DTNB in a total volume of 3 ml.
The standard and blank experiment was carried out as above using 0.1 ml of standard GSH and distilled water, respectively instead of samples. The absorbance of the developed yellow color of samples and standard was read against blank at 412 nm.
The tissue contents of GSH were estimated using the following equation; GSH level (μmol/g protein)=[As Ast×Standard concentration×10]/total proteins, • where; • As: Absorbance of the sample (homogenate); • Ast: Absorbance of standard; and • 10: The tissue dilution.
as §3

[4] = test system: aluminum chloride (AlCl3)-induced Alzheimer-like disease in rats; assay: Catalase activity in brain homogenate of AlCl3-induced Alzheimer-like rats
Description: as §1, §2
Catalase reacts with a known quantity of H2O2. The reaction is stopped after exactly one minute with a catalase inhibitor. In the presence of peroxidase (HRP), remaining H2O2 reacts with 3,5-Dichloro-2-hydroxybenzene sulfonic acid (DHBS) and 4-aminophenazone (AAP) to form a chromophore with a color intensity inversely proportional to the amount of catalase in the original sample.
The reagents included: • buffer (Phosphate buffer, pH 7.0 Detergent)−100 mM/L; • H2O2 (substrate and standard) (Dilute 1000 times)−500 mM/L • Chromogen—Inhibitor— • Enzyme: Peroxidase 4-Aminoantipyrine Preservative->2000/L 2 mM/L.
as §3

[5] = Table 1, single animal samples (code = group G + animal H), brain homogenate supernatant
[6] = Table 2, value ± spread per treatment group, Example 5, nano-formulation 200 mg/kg/day for 15 days orally

Compound	TBARS [1, 5]	TBARS [1, 6]	NO [2, 5]	NO [2, 6]	GSH [3, 5]	GSH [3, 6]	Catalase [4, 5]	Catalase [4, 6]
[Cl][Al]([Cl])[Cl] [AlCl3, aluminum chloride]	1.54 μmol/g protein and 1.48 μmol/g protein	0.68 ± 0.04^bc	61.67 μM/g protein and 65.00 μM/g protein	36.18 ± 0.58^bc	12.06 μmol/g protein and 14.51 μmol/g protein	19.03 ± 3.89^bc	54 U/g and 65 U/g	84.33 ± 17.27^bc
collagen	0.74 μmol/g protein and 0.60 μmol/g protein	0.71 ± 0.01^bc	37.22 μM/g protein and 36.11 μM/g protein	34.91 ± 0.83^bc	24.78 μmol/g protein and 11.61 μmol/g protein	14.44 ± 0.58^b	111 U/g and 52 U/g	62.33 ± 1.45^b
